Earlier results as cited in US20240148815A1, “FOOD SUPPLEMENT TO PROMOTE BODY WEIGHT LOSS” (NGN HEALTHCARE-NEW GENERATION NUTRACEUTICALS S.R.L., priority 2021, published 2024).
Where a name gives a salt, the structure may show the parent alone.

Key:
[1] = tested on: overweight women; conditions: 4 weeks, calorie-reduced diet
[2] = tested on: NCI-H716 cells
[3] = tested on: rodents; conditions: intragastric preload prior to enteral glucose
[4] = tested on: obese mice; conditions: intragastric, 4 weeks
[5] = tested on: NCI-716 and STC-1 cells (T2R38); conditions: by interacting with T2R38
[6] = tested on: young healthy subjects; conditions: oral, encapsulated, 18 mg

N[C@@H](Cc1c[nH]c2ccc(O)cc12)C(=O)O [5-hydroxytryptophan]
BMI [1]: decrease
feeling of satiety [1]: significantly increased

CC[N+](CC)(CC(=O)Nc1c(C)cccc1C)Cc1ccccc1 [DB, denatonium benzoate]
PYY secretion [2]: stimulates
GLP-1 plasma levels [3]: increase
blood glucose [3]: reduction
gastric emptying [3]: slowing
insulin concentration [3]: increase
meal-induced GLP-1 secretion [4]: increase
body weight ([4]; obese mice): reduction

COc1ccc2cc3[n+](cc2c1OC)CCc1cc2c(cc1-3)OCO2 [berberine]
GLP-1 secretion [5]: dose-dependently stimulate

NC(=S)Nc1ccccc1 [phenylthiourea]
GLP-1 secretion [5]: dose-dependently stimulate

C=C[C@H]1C[N@@]2CC[C@H]1C[C@H]2[C@H](O)c1ccnc2ccc(OC)cc12 [quinine HCl]
CCK plasma concentrations [6]: increased
energy intake during an ad libitum meal [6]: reduced
